Assay results reported in BindingDB's records for doi:10.7270/Q2DF6PMF (Nmmlsc, 2007).
Structures can show the parent of a compound that is named as a salt.

molecular target: T1, N-formyl peptide receptor 2 (Homo sapiens, UniProt P25090); test: concentration-dependent FPRL1 ligand displacement – cell-based, FPR counter-screen, fluorescent ligand, dose response (AID 520); settings: not given
T1 sequence (P25090 whole entry): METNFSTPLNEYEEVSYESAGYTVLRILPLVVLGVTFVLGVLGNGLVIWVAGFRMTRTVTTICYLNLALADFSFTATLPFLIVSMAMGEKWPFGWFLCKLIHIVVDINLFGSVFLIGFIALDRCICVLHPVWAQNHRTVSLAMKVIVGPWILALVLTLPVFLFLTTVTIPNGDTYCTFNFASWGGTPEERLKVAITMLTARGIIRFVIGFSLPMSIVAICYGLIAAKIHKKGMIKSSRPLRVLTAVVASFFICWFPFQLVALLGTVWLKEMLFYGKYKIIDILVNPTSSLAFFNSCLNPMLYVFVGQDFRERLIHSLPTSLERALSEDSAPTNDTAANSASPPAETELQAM

Point of comparison: `COc1cccc2c1C(=O)c1c(O)c3c(c(O)c1C2=O)C[C@@](O)(C(C)=O)C[C@@H]3O[C@H]1C[C@H](N)[C@H](O)[C@H](C)O1` [(7S,9S)-9-acetyl-7-[(2R,4S,5S,6S)-4-amino-5-hydroxy-6-methyloxan-2-yl]oxy-6,9,11-trihydroxy-4-methoxy-8,10-dihydro-7H-tetracene-5,12-dione;hydrochloride], IC50 25.1 µM. Against it:
- O=C(Cn1cnc2c(cnn2-c2ccc(F)cc2)c1=O)OCc1ccccc1 [(phenylmethyl) 2-[1-(4-fluorophenyl)-4-oxidanylidene-pyrazolo[3,4-d]pyrimidin-5-yl]ethanoate] — higher, > 66.7 µM
- CN(C)c1nc(N(C)C)nc(N(C)C)n1 [ALTRETAMINE] — higher, > 66.7 µM
- CCN(CCCc1ccccc1)CCCc1ccccc1 [ALVERINE CITRATE SALT] — higher, > 66.7 µM
- CC1(C)S[C@@H]2[C@H](NC(=O)C(C(=O)O)c3ccccc3)C(=O)N2[C@H]1C(=O)O (some centres undefined) [CARBENICILLIN DISODIUM SALT] — higher, > 66.7 µM
- COc1ccccc1NC(=O)CSc1nnc(Cn2nnc(-c3ccccc3)n2)n1-c1ccccc1 [MLS000032410] — higher, > 66.7 µM
- Cc1[nH]n2c(=O)c3c(nc2c1-c1ccc(Cl)cc1)CCC3 [MLS000034815] — higher, > 66.7 µM
- COc1ccc(CN(C(=O)c2ccccc2OC)C2CCS(=O)(=O)C2)cc1 (centres undefined) [MLS000041347] — higher, > 66.7 µM
- COc1ccc(NC(=O)C(c2ccc(C)cc2)N(C)C(=O)c2cnccn2)cc1 (centres undefined) [MLS000044155] — higher, > 66.7 µM
- COc1ccc(-c2nnc(Nc3nc4c(OC)cccc4s3)o2)cc1 [MLS000045458] — higher, > 66.7 µM
- O=c1cc(N2CCc3ccccc32)[nH]c(=O)n1Cc1ccc(F)cc1 [MLS000045863] — higher, > 66.7 µM
- COc1ccc(-c2cn3cccnc3n2)cc1NC(=O)C1CC1 [MLS000045944] — 3.3-fold lower, 7.6 µM
- COc1ccc(-c2cn3cccnc3n2)cc1NC(=O)C1CCCC1 [MLS000045945] — higher, > 66.7 µM
- Cc1ccc(NC(=O)c2oc3ccc(S(=O)(=O)N4CCOCC4)cc3c2C)cc1C [MLS000046288] — higher, > 66.7 µM
- O=C(NCCCN1CCN(c2ccc(F)cc2)CC1)c1cccc(N2CCCC2=O)c1 [MLS000046779] — higher, > 66.7 µM
- CCOC(=O)Nc1ccc(OC)cc1S(=O)(=O)N1CCCCC1 [MLS000048808] — higher, > 66.7 µM
- COc1ccc(S(=O)(=O)NC(C)C(=O)Nc2cccc(C(C)=O)c2)cc1 (centres undefined) [MLS000051414] — higher, > 66.7 µM
- C=CCn1c(NC(=O)c2ccccc2)c(C#N)c2nc3ccccc3nc21 [MLS000057035] — higher, > 66.7 µM
- O=S(=O)(Nc1cccc2ncccc12)c1cccs1 [MLS000057468] — higher, > 66.7 µM
- O=C(NC1CCCC1)C1CC1c1ccccc1 (centres undefined) [MLS000061073] — higher, > 66.7 µM
- COc1ccc(NC(=O)C2C3CCC(C3)C2C(=O)O)cc1OC (centres undefined) [MLS000061524] — higher, > 66.7 µM
- Cc1nnc(SCc2cnc(-c3ccccc3)o2)nc1O [MLS000061907] — higher, > 66.7 µM
- Cc1cc2oc(C(=O)NC3CCS(=O)(=O)C3)c(C)c2cc1C (centres undefined) [MLS000063255] — higher, > 66.7 µM
- CSc1ccccc1NS(=O)(=O)c1ccccc1 [MLS000064343] — higher, > 66.7 µM
- CC1(C)S[C@@H]2[C@H](NC(=O)Cc3ccccc3)C(=O)N2[C@H]1C(=O)O [MLS000069426] — higher, > 66.7 µM
- CCCCn1c(NC(C)=O)c(C#N)c2nc3ccccc3nc21 [MLS000079917] — higher, > 66.7 µM
- CCCCn1c(NC(=O)CC)c(C#N)c2nc3ccccc3nc21 [MLS000079918] — higher, > 66.7 µM
- CCCC(=O)Nc1c2c(nn1-c1ccc(OC)cc1)C[S+]([O-])C2 (centres undefined) [MLS000086302] — higher, > 66.7 µM
- COc1ccc(-c2cc(C(F)(F)F)nc(NC3CCCC3)n2)cc1OC [MLS000086438] — higher, > 66.7 µM
- COC(=O)C1=[N+]([O-])OC(C(=O)OC)C1c1c[nH]c2ccccc12 (centres undefined) [MLS000090094] — higher, > 66.7 µM
- CCOc1ccccc1NC(=O)CSc1nccn1-c1ccccc1 [MLS000090721] — higher, > 66.7 µM
- CC(=O)SCC(=O)N=c1sc2cc(F)ccc2n1C [MLS000091388] — higher, > 66.7 µM
- CCSc1nnc(NC(=O)CSc2nnc(Cc3cccn3C)n2CCc2ccccc2)s1 [MLS000092939] — higher, > 66.7 µM
- CCOC(=O)c1sc(=S)n2c1[nH]c(=O)c1ccc(C(=O)OC)cc12 [MLS000094734] — higher, > 66.7 µM
- CCC(C)(C(=O)NC1CCCC1)N(CC1CCCO1)C(=O)c1ccc2c(c1)OCO2 (centres undefined) [MLS000095004] — higher, > 66.7 µM
- Cc1cccc(-n2nc3c(c2NC(=O)c2ccco2)CSC3)c1C [MLS000095654] — higher, > 66.7 µM
- Cc1cccc(OCC(=O)Nc2cc(C)ccc2O)c1 [MLS000100112] — higher, > 66.7 µM
- COc1ccc(OC)c(NC(=O)C2C3CCC(C3=C(C)C)C2C(=O)O)c1 (centres undefined) [MLS000110216] — higher, > 66.7 µM
- CC(=O)OCCNc1cc(N2CCN(C)CC2)c2noc3c2c1C(=O)c1ccccc1-3 [MLS000118373] — 3.6-fold lower, 6.9 µM
- COc1ccc(-n2c(Cc3cccn3C)nnc2SCC(=O)Nc2ccc(Cl)cc2)cc1 [MLS000118695] — higher, > 66.7 µM
- Cc1ccc(NC(=O)C2CCCN2S(=O)(=O)c2cccc3cccnc23)cc1F (centres undefined) [MLS000119092] — higher, > 66.7 µM
- CCOC(=O)c1cc(NC(=O)C2C3CCC(O3)C2C(=O)O)cc(C(=O)OCC)c1 (centres undefined) [MLS000521500] — higher, > 66.7 µM
- O=c1c(C23CC4CC(CC(C4)C2)C3)c(O)n(-c2ccccc2)n1-c1ccccc1 [MLS000526352] — higher, > 66.7 µM
- Cc1[nH]n2c(=O)c3c(nc2c1-c1cccc2ccccc12)CCC3 [MLS000530451] — higher, > 66.7 µM
- CCC(SC1=Nc2ccccc2C2=NC(CC(C)C)C(=O)N12)C(=O)Nc1ccc2c(c1)OCO2 (centres undefined) [N-(1,3-benzodioxol-5-yl)-2-[[2-(2-methylpropyl)-3-oxo-2H-imidazo[1,2-c]quinazolin-5-yl]sulfanyl]butanamide] — higher, > 66.7 µM
- COCCN1Cc2cccc(C(=O)NCc3ccc4c(c3)OCO4)c2C1=O [N-(1,3-benzodioxol-5-ylmethyl)-2-(2-methoxyethyl)-3-oxoisoindoline-4-carboxamide] — higher, > 66.7 µM
- COc1ccc(NC(=O)C2C(=O)NC3(C)CC2c2ccccc2O3)cc1 (centres undefined) [N-(4-methoxyphenyl)-2-methyl-4-oxo-3,4,5,6-tetrahydro-2H-2,6-methano-1,3-benzoxazocine-5-carboxamide] — higher, > 66.7 µM
- Cc1cc(NC(=O)CSc2nnc(Cn3c(=O)sc4ccccc43)n2-c2ccccc2C)no1 [N-(5-methyl-3-isoxazolyl)-2-[[4-(2-methylphenyl)-5-[(2-oxo-1,3-benzothiazol-3-yl)methyl]-1,2,4-triazol-3-yl]thio]acetamide] — higher, > 66.7 µM
- COc1cc2c3c(c1)/C(=C1/SC(NC(C)=O)=NC1=O)C(=O)N3C(C)(C)C=C2C [N-[5-(8-methoxy-4,4,6-trimethyl-2-oxo-4H-pyrrolo[3,2,1-ij]quinolin-1(2H)-ylidene)-4-oxo-4,5-dihydro-1,3-thiazol-2-yl]acetamide] — higher, > 66.7 µM
- Cc1ccc(C)c(-n2c(CNC(=O)c3ccco3)nnc2SCC(=O)N2CCc3ccccc32)c1 [N-[[5-[2-(2,3-dihydroindol-1-yl)-2-oxoethyl]sulfanyl-4-(2,5-dimethylphenyl)-1,2,4-triazol-3-yl]methyl]furan-2-carboxamide] — higher, > 66.7 µM
- CCCCNC(=O)c1sc(=S)n2c1[nH]c(=O)c1ccccc12 [N-butyl-5-oxo-1-thioxo-4,5-dihydro[1,3]thiazolo[3,4-a]quinazoline-3-carboxamide] — higher, > 66.7 µM
- C[N+]1(C)[C@@H]2CC(OC(=O)[C@H](CO)c3ccccc3)C[C@H]1[C@@H]1O[C@@H]12 (some centres undefined) [SCOPOLAMINE METHYL NITRATE] — higher, > 66.7 µM
- CCc1c(C)nc2c(C#N)c(C)[nH]n2c1=O [SMR000013340] — higher, > 66.7 µM
- Cc1ccc(NC(=O)C2C(=O)N(CCO)C3(C)CC2c2ccccc2O3)cc1 (centres undefined) [SMR000015827] — higher, > 66.7 µM
- COc1ccccc1-n1c(CNC(=O)c2ccco2)nnc1SCC(=O)Nc1ccc(F)cc1 [SMR000021507] — higher, > 66.7 µM
- CCN(CC)c1ccc(C=NC(C#N)C(=N)C#N)cc1 (centres undefined) [SMR000023871] — higher, > 66.7 µM
- COc1cccc(OC)c1C(=O)C(C#N)c1nc2ccccc2[nH]1 (centres undefined) [SMR000024183] — higher, > 66.7 µM
- O=S(=O)(c1c[nH]cn1)N1CCc2ccccc21 [SMR000026956] — higher, > 66.7 µM
- CCC(Sc1nc2c(c(=O)[nH]1)CCC2)C(=O)Nc1cccc(OC)c1 (centres undefined) [SMR000028729] — higher, > 66.7 µM
- O=C(NC1CCCCC1)c1sc(=S)n2c1[nH]c(=O)c1ccccc12 [SMR000030293] — higher, > 66.7 µM
- CCC(=O)Nc1c(C#N)c2nc3ccccc3nc2n1-c1ccccc1C [SMR000039884] — higher, > 66.7 µM
- Cc1[nH]n2c(=O)c(C#N)c(-c3ccccc3)nc2c1-c1ccccc1 [SMR000047798] — higher, > 66.7 µM
- CN1C(=O)/C(=C2\SC(=S)N(C(CCC(=O)O)C(=O)O)C2=O)c2ccccc21 (centres undefined) [SMR000054993] — higher, > 66.7 µM
- CCCc1nc2ccccc2c2nc(N)nn12 [SMR000073509] — higher, > 66.7 µM
- Cc1[nH]n2c(=O)c3c(nc2c1-c1ccccc1)CCC3 [SMR000082027] — higher, > 66.7 µM
- COc1ccccc1-c1c(C)oc2cc(OC(=O)c3ccco3)ccc2c1=O [[3-(2-methoxyphenyl)-2-methyl-4-oxidanylidene-chromen-7-yl] furan-2-carboxylate] — higher, > 66.7 µM
- CCOC(=O)Cc1cc(=O)n2[nH]c(C)c(-c3ccc(Cl)cc3)c2n1 [ethyl 2-[3-(4-chlorophenyl)-2-methyl-7-oxo-1H-pyrazolo[1,5-a]pyrimidin-5-yl]acetate] — higher, > 66.7 µM

`O=c1c(C23CC4CC(CC(C4)C2)C3)c(O)n(-c2ccccc2)n1-c1ccccc1` [MLS000526352] and `COc1cccc(OC)c1C(=O)C(C#N)c1nc2ccccc2[nH]1` (centres undefined) [SMR000024183] cannot be ordered by Ki: > 40.3 µM for the first, > 40.3 µM for the second.

With `CCN(CC)c1ccc(C=NC(C#N)C(=N)C#N)cc1` (centres undefined) [SMR000023871] the Ki was > 40.3 µM.

same assay, conditions: inactive by the depositor's call

Point of comparison: `Cc1[nH]n2c(=O)cc(-c3ccc([N+](=O)[O-])cc3)nc2c1-c1ccccc1` [MLS000547439], IC50 31.7 µM. Against it:
- CCCC(=O)Nc1cc(-c2cn3cccnc3n2)ccc1OC [MLS000045942] — within 1.5-fold, 22.8 µM
- COc1ccc(-c2cn3cccnc3n2)cc1NC(=O)CC(C)C [MLS000045943] — within 1.5-fold, 45 µM
- CCOC(=O)N1CCN(c2cc(NCCC(=O)O)c3c4c(onc24)-c2ccccc2C3=O)CC1 [MLS000086406] — 1.6-fold higher, 49.9 µM
